Measured values taken from patent publication US6028195A, “Piperazine derivatives and process for the preparation thereof” (Samjin Pharmaceutical Co., Ltd., priority 1996, dated 2000).
In brackets after ≈: the same amount, converted by molar mass. Where two headings read alike, the source gives them in different places.

Experiments:
[1] = Acute toxicity test (LD50), Litchfield-Wilcoxon method; details: mouse, in vivo, ip, male ICR mice, 14 days
Method: Acute toxicity test (LD50): Litchfield-Wilcoxon method.
6 weeks old ICR mice(male 30±2.0 g) were fed freely with solid feed and water at room temperature, 23±1° C. and at humidity 60±5%. Sample drugs were injected into the abdominal cavities of mice, while each group comprises 6 mice. Observed during 14 days, external appearances and life or dead were recorded, and then, visible pathogenies were observed from dead animals by dissection. LD50 value was calculated by Litchfiled-wilcoxon method.

[2] = system: mouse leukemia P388 cells; assay: In vivo antitumor effects against mouse leukemia P388 cells in BDF1 mice; details: P388, ip, abdominal cavity
Method: In vivo antitumor effects against mouse leukemia P388 cells.
1) Leukemia P388 cells being transfer-cultured successively in DBA/2 mouse, were grafted into each mouse of a group comprising 8 mice of 6 week old BDF1 mouse with the dose of 1×10^6 cells/0.1 ml. […]
3) With observation everyday, survival times of tested mice were measured. Antitumor activities was determined in such a manner that the increasing ratio(T/C%) of average survival days of drug-treated groups compared with the control group was calculated using the mean survival times of each tested groups.

[3] = system: A549 (human non-small lung cell); assay: SRB assay, in vitro antitumor effect against A549; format: cell-based; details: Homo sapiens; A549, 48 hours; read-out: ED50 (the source's name)
Method: (§1) In vitro antitumor effect against human tumor cell lines.
(§2) b. 5×10^3 ~2×10^4 cells were added into each well of 96-well plate and cultured in 5% CO2 incubator, at 37° C., for 24 hours.
(§3) c. Each sample drug was dissolved in a little DMSO and diluted with the used medium to a prescribed concentration for experiments, wherein the final concentration of DMSO was controlled below 0.5%.
(§4) d. Medium of each well cultured for 24 hours as above b. was removed by aspiration. Each 200 μl of drug samples prepared in c. was added into each well and the wells were cultured for 48 hours. Tz(time zero) plates were collected at the point of time drugs were added.
(§5) e. According to the SRB assay method, cell fixing with TCA, staining with 0.4% SRB solution, washing with 1% acetic acid and elution of dye with 10 mM Tris solution were carried out on Tz plates and culture-ended plates, and then, OD values were measured at 520 nm.
(§6) a. Time zero(Tz) value was determined with measuring the SRB protein value at the point of time drugs were added.
(§7) b. Control value(C) was determined with the OD value of an well untreated with drug.
(§8) c. Drug-treated test value(T) was determined with the OD value of drug-treated well.
(§9) d. Effects of drugs were estimated with growth stimulation, net growth inhibition, net killing etc. calculated from Tz, C and T.
(§10) e. If T≥Tz, cellular response function was calculated by 100×(T-Tz)/(C-Tz), and if T<Tz, by 100×(T-Tz)/Tz.

SKOV-3 (human ovarian) = assay: SRB assay, in vitro antitumor effect against SKOV-3; format: cell-based; details: Homo sapiens; SK-OV-3, 48 hours; read-out: ED50 (the source's name)
Method: as §1, §2, §3, §4, §5, §6, §7, §8, §9, §10

HCT-15 (human colon) = assay: SRB assay, in vitro antitumor effect against HCT-15; format: cell-based; details: Homo sapiens; HCT 15, 48 hours; read-out: ED50 (the source's name)
Method: as §1, §2, §3, §4, §5, §6, §7, §8, §9, §10

XF 498 (human CNS) = assay: SRB assay, in vitro antitumor effect against XF 498; format: cell-based; details: Homo sapiens, XF498; XF-498, 48 hours; read-out: ED50 (the source's name)
Method: as §1, §2, §3, §4, §5, §6, §7, §8, §9, §10

SKMEL-2 (human melanoma) = assay: SRB assay, in vitro antitumor effect against SKMEL-2; format: cell-based; details: Homo sapiens; SK-MEL-2, 48 hours; read-out: ED50 (the source's name)
Method: as §1, §2, §3, §4, §5, §6, §7, §8, §9, §10

[4] = nine everyday, read-out: T/C(%)
[5] = on days 1, 4, 8, read-out: T/C(%)

Structure (SMILES) | IC50 [3] | IC50 (SKOV-3 (human ovarian)) | IC50 (HCT-15 (human colon)) | IC50 (XF 498 (human CNS)) | IC50 (SKMEL-2 (human melanoma)) | also measured
CCc1nc(OC)c(NC(=O)N2CCN(c3cc(OC)cc(OC)c3)CC2)cc1C [Example 12, 1-[(6-Ethyl-2-methoxy-5-methylpyridin-3-yl)aminocarbonyl]-4-(3,5-dimethoxyphenyl)piperazine] | – | – | – | – | – | LD50 at 336 h [1]: 165 mg/kg
C=C(C)c1ccccc1N1CCN(C(=O)Nc2cc(C)c(C)cc2OC)CC1 [Example 187, 1-[(4,5-Dimethyl-2-methoxyphenyl)aminocarbonyl]-4-(2-isopropenylphenyl)piperazine] | – | – | – | – | – | LD50 at 336 h [1]: 418 mg/kg
CCc1nc(OC)c(NC(=O)N2CCN(c3cc(C)cc(C)c3)CC2)cc1C [Example 13, 1-[(6-Ethyl-2-methoxy-5-methylpyridin-3-yl)aminocarbonyl]-4-(3,5-dimethylphenyl)piperazine] | – | – | – | – | – | LD50 at 336 h [1]: 285 mg/kg
COc1cc(OC)cc(N2CCN(C(=O)N(C)c3cc4ccccc4nc3OC)CC2)c1 [Example 98, 1-[N-(2-Methoxyquinolin-3-yl)-N-methylaminocarbonyl]-4-(3,5-dimethoxyphenyl)piperazine] | – | – | – | – | – | response vs control in vivo at 25 mg/kg [2, 4]: 110%; response vs control in vivo at 50 mg/kg [2, 4]: 110%; response vs control in vivo at 100 mg/kg [2, 4]: 150%
CCc1cc(N(C)C(=O)N2CCN(c3cc(C)cc(C)c3)CC2)c(OC)nc1C [Example 144, 1-[N-(5-Ethyl-2-methoxy-6-methylpyridin-3-yl)-N-methylaminocarbonyl]-4-(3,5-dimethylphenyl)piperazine] | – | – | – | – | – | response vs control in vivo at 50 mg/kg [2, 4]: 110%; response vs control in vivo at 100 mg/kg [2, 4]: 110%; response vs control in vivo at 200 mg/kg ([2]; 200 mg/kg, nine everyday, read-out: T/C(%)): 125%
COc1cc(C)c(C)cc1NC(=O)N1CCN(c2ccccc2)CC1 [Example 170, 1-[(4,5-Dimethyl-2-methoxyphenyl)aminocarbonyl]-4-phenylpiperzine] | – | – | – | – | – | LD50 at 336 h [1]: 573 mg/kg
COc1cc(C)c(C)cc1NC(=O)N1CCN(c2cc(-c3ccccc3)ccc2OC)CC1 [Example 186, 1-[(4,5-Dimethyl-2-methoxyphenyl)aminocarbonyl]-4-(2-methoxy-5-phenylphenyl)piperazine] | – | – | – | – | – | LD50 at 336 h [1]: > 2000 mg/kg
COc1nc(C)c(C)cc1N(C)C(=O)N1CCN(c2cc(C)cc(C)c2)CC1 [Example 135, 1-[N-(5,6-Dimethyl-2-methoxypyridin-3-yl)-N-methylaminocarbonyl]-4-(3,5-dimethylphenyl)piperazine] | 0.056 µg/mL (≈ 0.146 µM) | 0.092 µg/mL (≈ 0.241 µM) | 0.066 µg/mL (≈ 0.173 µM) | 0.06 µg/mL (≈ 0.157 µM) | 0.102 µg/mL (≈ 0.267 µM) | response vs control in vivo at 25 mg/kg [2, 4]: 100%; response vs control in vivo at 50 mg/kg [2, 4]: 110%; response vs control in vivo at 100 mg/kg [2, 4]: 150%
COc1cc(OC)cc(N2CCN(C(=O)Nc3cc(C)c(C)cc3OC)CC2)c1 [Example 171, 1-[(4,5-Dimethyl-2-methoxyphenyl)aminocarbonyl]-4-(3,5-dimethoxyphenyl)piperazine] | 0.000645 µg/mL (≈ 0.00161 µM) | 0.00372 µg/mL (≈ 0.00931 µM) | 0.00181 µg/mL (≈ 0.00453 µM) | 0.000572 µg/mL (≈ 0.00143 µM) | 0.00323 µg/mL (≈ 0.00809 µM) | response vs control in vivo at 25 mg/kg [2, 5]: 100%; response vs control in vivo at 50 mg/kg [2, 5]: 100%; response vs control in vivo at 100 mg/kg [2, 5]: 140%
COc1cc(OC)cc(N2CCN(C(=S)Nc3cc(C(C)=O)c(C)nc3OC)CC2)c1 [Example 53, 1-[(5-Acetyl-2-methoxy-6-methylpyridin-3-yl)aminothiocarbonyl]-4-(3,5-dimethoxyphenyl)piperazine] | 0.47 µg/mL (≈ 1.06 µM) | 0.47 µg/mL (≈ 1.06 µM) | 0.71 µg/mL (≈ 1.6 µM) | 0.67 µg/mL (≈ 1.51 µM) | 0.64 µg/mL (≈ 1.44 µM) | –
COc1nc(C)c(C(C)O)cc1NC(=S)N1CCN(c2cc(C)cc(C)c2)CC1 (centres unmarked) [Example 64, 1-{[5-(1-Hydroxyethyl)-2-methoxy-6-methylpyridin-3-yl]aminothiocarbonyl}-4-(3,5-dimethylphenyl)piperazine] | 0.42 µg/mL (≈ 1.01 µM) | 0.56 µg/mL (≈ 1.35 µM) | 0.37 µg/mL (≈ 0.892 µM) | 0.23 µg/mL (≈ 0.555 µM) | 0.52 µg/mL (≈ 1.25 µM) | –
COc1cc(C)c(C)cc1NC(=O)N1CCN(c2cccc(Cl)c2)CC1 [Example 177, 1-[(4,5-Dimethyl-2-methoxyphenyl)aminocarbonyl]-4-(3-chlorophenyl)piperazine] | 0.52 µg/mL (≈ 1.39 µM) | 0.39 µg/mL (≈ 1.04 µM) | 0.09 µg/mL (≈ 0.241 µM) | 0.12 µg/mL (≈ 0.321 µM) | 0.17 µg/mL (≈ 0.455 µM) | –
COc1cc(C)c(C)cc1NC(=S)N1CCN(c2cccc(O)c2)CC1 [Example 206, 1-[(4,5-Dimethyl-2-methoxyphenyl)aminothiocarbonyl]-4-(3-hydroxyphenyl)piperazine] | 0.47 µg/mL (≈ 1.27 µM) | 0.54 µg/mL (≈ 1.45 µM) | 0.38 µg/mL (≈ 1.02 µM) | 0.7 µg/mL (≈ 1.88 µM) | 0.52 µg/mL (≈ 1.4 µM) | –
COc1cc(C)c(C)cc1NC(=O)N1CCN(c2ccccc2OC)CC1 [Example 183, 1-[(4,5-Dimethyl-2-methoxyphenyl)aminocarbonyl]-4-(2-methoxyphenyl)piperazine] | 0.42 µg/mL (≈ 1.14 µM) | 2.27 µg/mL (≈ 6.14 µM) | 2.09 µg/mL (≈ 5.66 µM) | 1.41 µg/mL (≈ 3.82 µM) | 1.17 µg/mL (≈ 3.17 µM) | –
C=Cc1cc(N(C)C(=O)N2CCN(c3cc(C)cc(C)c3)CC2)c(OC)nc1C [Example 159, 1-[N-(2-Methoxy-6-methyl-5-vinylpyridin-3-yl)-N-methylaminocarbonyl]-4-(3,5-dimethylphenyl)piperazine] | 0.05 µg/mL (≈ 0.127 µM) | 0.1 µg/mL (≈ 0.253 µM) | 0.17 µg/mL (≈ 0.431 µM) | 0.21 µg/mL (≈ 0.532 µM) | 0.07 µg/mL (≈ 0.177 µM) | –
COc1nc2ccccc2cc1NC(=S)N1CCN(c2cc(C)cc(C)c2)CC1 [Example 110, 1[(2-Methoxyquinolin-3-yl)aminothiocarbonyl]-4-(3,5-dimethylphenyl)piperazine] | 0.52 µg/mL (≈ 1.28 µM) | 1.06 µg/mL (≈ 2.61 µM) | 0.69 µg/mL (≈ 1.7 µM) | 0.81 µg/mL (≈ 1.99 µM) | 0.97 µg/mL (≈ 2.39 µM) | –
C=Cc1cc(NC(=O)N2CCN(c3cc(F)cc(F)c3)CC2)c(OC)nc1C [Example 75, 1-[(2-Methoxy-6-methyl-5-vinylpyridin-3-yl)aminocarbonyl]-4-(3,5-difluorophenyl)piperazine] | 0.19 µg/mL (≈ 0.489 µM) | 0.09 µg/mL (≈ 0.232 µM) | 0.12 µg/mL (≈ 0.309 µM) | 0.13 µg/mL (≈ 0.335 µM) | 0.09 µg/mL (≈ 0.232 µM) | –
COc1ccc(C)c(N2CCN(C(=O)N(Cc3ccccc3)c3cc(C)c(C)nc3OC)CC2)c1 [Example 142, 1-[N-Benzyl-N-(5,6-dimethyl-2-methoxypyridin-3-yl)aminocarbonyl]-4-(5-methoxy-2-methylphenyl)piperazine] | 0.015 µg/mL (≈ 0.0316 µM) | 0.011 µg/mL (≈ 0.0232 µM) | 0.017 µg/mL (≈ 0.0358 µM) | 0.026 µg/mL (≈ 0.0548 µM) | 0.021 µg/mL (≈ 0.0442 µM) | –
COc1nc2ccccc2cc1NC(=S)N1CCN(c2cc(Cl)cc(Cl)c2)CC1 [Example 112, 1-[(2-Methoxyquinolin-3-yl)aminothiocarbonyl]-4-(3,5-dichlorophenyl)piperazine] | 0.56 µg/mL (≈ 1.25 µM) | 6.43 µg/mL (≈ 14.4 µM) | 0.61 µg/mL (≈ 1.36 µM) | 2.07 µg/mL (≈ 4.63 µM) | 0.22 µg/mL (≈ 0.492 µM) | –
